Publication PMC9981671, “rRNA methylation by Spb1 regulates the GTPase activity of Nog2 during 60S ribosomal subunit assembly” (Nature Communications, 2023)

Target: Nog2 (Saccharomyces cerevisiae, UniProt P53742)
Experiment: cryo-EM structure of native pre-60S particle, […] A
Type: binding
Details: Nog2pre from spb1 D52A strain (unmethylated G2922); GTPase site with Mg2+ and K+; pH 8.0; also Nog2post (7UUI) and Nog2pre from spb1 D52A/E769K strain (7V08)

Chain of Nog2 (P53742 whole entry): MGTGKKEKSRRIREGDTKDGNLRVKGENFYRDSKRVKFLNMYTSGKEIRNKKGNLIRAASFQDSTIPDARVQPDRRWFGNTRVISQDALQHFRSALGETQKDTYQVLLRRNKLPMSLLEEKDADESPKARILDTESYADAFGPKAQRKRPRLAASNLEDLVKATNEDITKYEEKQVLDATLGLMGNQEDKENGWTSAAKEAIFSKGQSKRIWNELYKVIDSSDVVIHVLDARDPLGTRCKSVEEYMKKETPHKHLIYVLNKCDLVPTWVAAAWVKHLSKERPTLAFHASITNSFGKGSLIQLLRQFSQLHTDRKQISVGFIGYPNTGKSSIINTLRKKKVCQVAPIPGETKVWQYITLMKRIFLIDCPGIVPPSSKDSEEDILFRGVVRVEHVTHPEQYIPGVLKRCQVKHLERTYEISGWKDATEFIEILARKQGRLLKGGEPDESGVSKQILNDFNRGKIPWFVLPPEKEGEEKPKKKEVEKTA

For `Nc1nc2c(ncn2[C@@H]2O[C@H](COP(=O)(O)OP(=O)(O)O)[C@@H](O)[C@H]2O)c(=O)[nH]1` [GDP], the “cryo-EM structure of native pre-60S particle, 2.4 A” value was “GTP hydrolysis has taken place and that GDP occupies the Nog2 active site”.
